Measured values taken from ChEMBL document CHEMBL1151449, “In vitro activity of DC-159a, a new broad-spectrum fluoroquinolone, compared with that of other agents against drug-susceptible and -resistant pneumococci” (2008).
Values after ≈ are worked out from the molar mass of the structure shown.

Tests used:
Streptococcus pneumoniae [1] = experiment: Antibacterial activity against penicillin-, macrolide-susceptible and quinolone-resistant Streptococcus pneumoniae HMC 1074 harboring S81F, E85K mutation in quinolone-resistant determining regions of GyrA gene, S79F mutation in QRDR of ParC gene and I460V mutation in QRDR of ParE gene after 27 passages with gemifloxacin measured after 10 daily antibiotic-free subculturing by multi-step resistance selection technique; format: functional
Streptococcus pneumoniae [2] = experiment: Antibacterial activity against Streptococcus pneumoniae HMC 1073 harboring S81F mutation in quinolone-resistant determining regions of GyrA gene, and I460V mutation in QRDR of ParE gene by agar dilution method; format: functional
Streptococcus pneumoniae [3] = experiment: Antibacterial activity against penicillin-resistant and quinolone-susceptible Streptococcus pneumoniae HMC 3583 expressing mefA after 50 passages by broth microdilution method; format: functional
Streptococcus sp. [4] = experiment: Antibacterial activity against Streptococcus sp. by agar dilution method; format: functional
Streptococcus pneumoniae [5] = experiment: Antibacterial activity against macrolide-, quinolone-susceptible and penicillin-intermediate Streptococcus pneumoniae HMC 100 after 50 passages by broth microdilution method; format: functional
Streptococcus pneumoniae [6] = experiment: Antibacterial activity against penicillin-resistant and quinolone-susceptible Streptococcus pneumoniae HMC 3583 expressing mefA and harboring I460V mutation in QRDR of ParE gene after 41 passages with gemifloxacin measured after 10 daily antibiotic-free subculturing by multi-step resistance selection technique; format: functional
Streptococcus pneumoniae [7] = experiment: Antibacterial activity against penicillin-resistant and quinolone-susceptible Streptococcus pneumoniae HMC 228 expressing ermB after 50 passages by broth microdilution method; format: functional
Streptococcus pneumoniae [8] = experiment: Antibacterial activity against penicillin-resistant and quinolone-susceptible Streptococcus pneumoniae HMC 228 expressing ermB after 38 passages by broth microdilution method; format: functional
Streptococcus pneumoniae [9] = experiment: Antibacterial activity against penicillin-, macrolide- and quinolone-susceptible Streptococcus pneumoniae HMC 63 harboring S81F mutation in quinolone-resistant determining regions of GyrA gene, D83Y mutation in QRDR of ParC gene and I460V mutation in QRDR of ParE gene after 34 passages with gemifloxacin measured after 10 daily antibiotic-free subculturing by multi-step resistance selection technique; format: functional
Streptococcus pneumoniae [10] = experiment: Antibacterial activity against penicillin-resistant and quinolone-susceptible Streptococcus pneumoniae HMC 3583 expressing mefA after 49 passages by broth microdilution method; format: functional
Streptococcus sp. [11] = experiment: Antibacterial activity against levofloxacin-intermediate -resistant Streptococcus sp. by agar dilution method; format: functional
Streptococcus pneumoniae [12] = experiment: Antibacterial activity against penicillin-resistant and quinolone-susceptible Streptococcus pneumoniae HMC 228 expressing ermB after 28 passages by broth microdilution method; format: functional
Streptococcus pneumoniae [13] = experiment: Antibacterial activity against penicillin-resistant and quinolone-susceptible Streptococcus pneumoniae HMC 3583 expressing mefA after 46 passages by broth microdilution method; format: functional
Streptococcus pneumoniae [14] = experiment: Antibacterial activity against penicillin-, macrolide-susceptible and quinolone-resistant Streptococcus pneumoniae HMC 1074 harboring S81F mutation in quinolone-resistant determining regions of GyrA gene, S79F mutation in QRDR of ParC gene and I460V mutation in QRDR of ParE gene after 27 passages by broth microdilution method; format: functional
Streptococcus pneumoniae [15] = experiment: Antibacterial activity against macrolide-, quinolone-susceptible and penicillin-intermediate Streptococcus pneumoniae HMC 100 after 42 passages by broth microdilution method; format: functional
Streptococcus pneumoniae [16] = experiment: Antibacterial activity against penicillin-, macrolide- and quinolone-susceptible Streptococcus pneumoniae HMC 63 after 34 passages by broth microdilution method; format: functional
Streptococcus pneumoniae [17] = experiment: Antibacterial activity against penicillin-resistant and quinolone-susceptible Streptococcus pneumoniae HMC 3583 expressing mefA after 41 passages by broth microdilution method; format: functional
Streptococcus pneumoniae [18] = experiment: Antibacterial activity against macrolide-, quinolone-susceptible and penicillin-intermediate Streptococcus pneumoniae HMC 100 after 22 passages by broth microdilution method; format: functional
Streptococcus pneumoniae [19] = experiment: Antibacterial activity against penicillin-resistant and quinolone-susceptible Streptococcus pneumoniae HMC 228 expressing ermB after 36 passages by broth microdilution method; format: functional
Streptococcus pneumoniae [20] = experiment: Antibacterial activity against macrolide-, quinolone-susceptible and penicillin-intermediate Streptococcus pneumoniae HMC 99 after 41 passages by broth microdilution method

**Q.** Which MIC (Streptococcus pneumoniae [1]) does the source give for `COc1c(N2CC3(CC3)[C@](C)(N)C2)c(F)cc2c(=O)c(C(=O)O)cn([C@@H]3C[C@@H]3F)c12.O` here?
**A.** Its MIC is 4 µg/mL.

**Q.** And the MIC (Streptococcus pneumoniae [2])?
**A.** Its MIC is 1 µg/mL.

**Q.** What about the MIC (Streptococcus pneumoniae [3]) of the same molecule?
**A.** The MIC was 1 µg/mL.

**Q.** And the MIC90 (Streptococcus sp. [4])?
**A.** Its MIC90 is 0.125 µg/mL.

**Q.** And the MIC (Streptococcus pneumoniae [5])?
**A.** Its MIC is 0.5 µg/mL.

**Q.** And the MIC (Streptococcus pneumoniae [6])?
**A.** The MIC was 1 µg/mL.

**Q.** And the MIC (Streptococcus pneumoniae [7])?
**A.** The MIC was 1 µg/mL.

**Q.** What about the MIC (Streptococcus pneumoniae [8]) of the same molecule?
**A.** Its MIC is 1 µg/mL.

**Q.** And the MIC (Streptococcus pneumoniae [9])?
**A.** Its MIC is 1 µg/mL.

**Q.** And the MIC (Streptococcus pneumoniae [10])?
**A.** The MIC was 1 µg/mL.

**Q.** And the MIC90 (Streptococcus sp. [11])?
**A.** Its MIC90 is 1 µg/mL.

**Q.** What does the source list for `COc1c(N2CCNC(C)C2)c(F)cc2c(=O)c(C(=O)O)cn(C3CC3)c12` (stereo not given) [GATIFLOXACIN]?
**A.** MIC (Streptococcus pneumoniae [1]): 16 µg/mL (≈ 42.6 µM); MIC (Streptococcus pneumoniae [2]): 4 µg/mL (≈ 10.7 µM); MIC (Streptococcus pneumoniae [12]): 4 µg/mL (≈ 10.7 µM); MIC (Streptococcus pneumoniae [5]): 0.5 µg/mL (≈ 1.33 µM); MIC (Streptococcus pneumoniae [6]): 2 µg/mL (≈ 5.33 µM); MIC (Streptococcus pneumoniae [9]): 8 µg/mL (≈ 21.3 µM); MIC (Streptococcus pneumoniae [13]): 4 µg/mL (≈ 10.7 µM)

**Q.** For `CO/N=C1\CN(c2nc3c(cc2F)c(=O)c(C(=O)O)cn3C2CC2)CC1CN` (stereo not given) [GEMIFLOXACIN], which MIC (Streptococcus pneumoniae [1]) is on record?
**A.** Its MIC is 2 µg/mL (≈ 5.14 µM).

**Q.** What about the MIC (Streptococcus pneumoniae [2]) of the same molecule?
**A.** The MIC was 0.125 µg/mL (≈ 0.321 µM).

**Q.** And the MIC (Streptococcus pneumoniae [14])?
**A.** The MIC was 4 µg/mL (≈ 10.3 µM).

**Q.** What about the MIC (Streptococcus pneumoniae [15]) of the same molecule?
**A.** Its MIC is 1 µg/mL (≈ 2.57 µM).

**Q.** What about the MIC (Streptococcus pneumoniae [16]) of the same molecule?
**A.** Its MIC is 0.5 µg/mL (≈ 1.28 µM).

**Q.** And the MIC (Streptococcus pneumoniae [6])?
**A.** Its MIC is 2 µg/mL (≈ 5.14 µM).

**Q.** What about the MIC (Streptococcus pneumoniae [7]) of the same molecule?
**A.** Its MIC is 0.25 µg/mL (≈ 0.642 µM).

**Q.** What about the MIC (Streptococcus pneumoniae [9]) of the same molecule?
**A.** The MIC was 0.5 µg/mL (≈ 1.28 µM).

**Q.** What about the MIC (Streptococcus pneumoniae [17]) of the same molecule?
**A.** The MIC was 0.25 µg/mL (≈ 0.642 µM).

**Q.** Which results are given for `COc1c(N2C[C@@H]3CCCN[C@@H]3C2)c(F)cc2c(=O)c(C(=O)O)cn(C3CC3)c12` [MOXIFLOXACIN]?
**A.** MIC (Streptococcus pneumoniae [1]): 16 µg/mL (≈ 39.9 µM); MIC (Streptococcus pneumoniae [2]): 2 µg/mL (≈ 4.98 µM); MIC (Streptococcus pneumoniae [3]): 0.5 µg/mL (≈ 1.25 µM); MIC (Streptococcus pneumoniae [18]): 2 µg/mL (≈ 4.98 µM); MIC (Streptococcus pneumoniae [19]): 2 µg/mL (≈ 4.98 µM); MIC (Streptococcus pneumoniae [6]): 0.5 µg/mL (≈ 1.25 µM); MIC (Streptococcus pneumoniae [9]): 4 µg/mL (≈ 9.96 µM); MIC (Streptococcus pneumoniae [20]): 4 µg/mL (≈ 9.96 µM)
